Here are results for six molecules from patent publication US20250296959A1, “B7-H3 TARGETING PEPTIDES AND CONSTRUCTS THEREOF” (Mariana Oncology Inc., priority 2024, published 2025).

The structures appear in SMILES notation. Starred links: 1 amine or outer side, 2 acyl side, 3 side chain; linkers in the order of their positions; H or OH if unused. Positions of bridges follow the written chain, without caps; N, C: chain ends. Non-standard residues stand in square brackets, D forms with d. Residues, ends and D or L forms follow the SMILES beside them. *: point of attachment. X7 = O=C(O)CN1CCN(CC(=O)O)CCN(CC(=O)NCCOCCOCCOCCOCCOCCOCCOCCOCC(=O)*)CCN(CC(=O)O)CC1; Ala(piperidin-4-yl) = O=C([C@H](CC1CCN([*:3])CC1)N[*:1])[*:2]; Phe(3-CH2NH2) = O=C([C@H](Cc1cccc(CN[*:3])c1)N[*:1])[*:2]; DOTA = O=C(O)CN1CCN(CC(=O)O)CCN(CC(=O)*)CCN(CC(=O)O)CC1; Phe(4-COOH) = N[C@@H](Cc1ccc(C(=O)O)cc1)C(=O)O; Trp(5-F) = N[C@@H](Cc1c[nH]c2ccc(F)cc12)C(=O)O; Trp(7-aza) = N[C@@H](Cc1c[nH]c2ncccc12)C(=O)O; X1 = C[C@@H](c1ccccc1)[C@H](N[*:1])C(=O)[*:2]; 1Nal = N[C@@H](Cc1cccc2ccccc12)C(=O)O; Ala(4-THP) = N[C@@H](CC1CCOCC1)C(=O)O; Val(3-OH) = CC(C)(O)[C@H](N)C(=O)O; Cya = N[C@@H](CS(=O)(=O)O)C(=O)O; Hyp = O=C(O)[C@@H]1C[C@@H](O)CN1; Tle = CC(C)(C)[C@H](N)C(=O)O; hLeu = CC(C)CC[C@H](N)C(=O)O; αMeK = C[C@](N)(CCCCN)C(=O)O

The assay concerns the target T1, human 4lg B7-H3 (Homo sapiens, UniProt Q5ZPR3).
T1 sequence (Q5ZPR3 29-534): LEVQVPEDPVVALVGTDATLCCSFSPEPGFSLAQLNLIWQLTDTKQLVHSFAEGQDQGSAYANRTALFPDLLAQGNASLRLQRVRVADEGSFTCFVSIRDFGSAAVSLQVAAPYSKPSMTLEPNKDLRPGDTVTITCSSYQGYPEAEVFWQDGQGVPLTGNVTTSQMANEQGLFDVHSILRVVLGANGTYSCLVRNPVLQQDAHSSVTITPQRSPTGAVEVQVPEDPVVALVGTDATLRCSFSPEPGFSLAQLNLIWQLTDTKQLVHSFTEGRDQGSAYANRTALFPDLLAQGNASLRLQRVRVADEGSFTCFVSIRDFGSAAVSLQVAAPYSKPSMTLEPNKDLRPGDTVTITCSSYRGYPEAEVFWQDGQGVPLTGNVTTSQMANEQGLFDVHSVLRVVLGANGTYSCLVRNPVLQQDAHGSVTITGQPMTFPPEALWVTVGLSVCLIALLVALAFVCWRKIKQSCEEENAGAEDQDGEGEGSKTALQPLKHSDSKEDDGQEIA
In words: Affinity determination by surface plasmon resonance (SPR) to 4Ig B7-H3. The note with it: 4Ig B7-H3. (In SPR one partner is held on a chip, and binding of the other changes the refractive index at the surface.)

[1] abbreviates: SPR KD—25° C., 25° C. flow cell temperature.
Where [2] appears, read: SPR KD—37° C., 37° C. flow cell temperature.

For orientation: Kd means the constant that tells how readily two partners part at equilibrium. Read a high Kd as lower affinity. Regarding `CC(=O)N[C@@H](CCC(C)C)C(=O)N[C@@H](Cc1ccc(O)cc1)C(=O)N[C@H]1CSSC[C@@H](C(=O)N[C@@H](Cc2c[nH]c3ncccc23)C(=O)N[C@@H](Cc2ccccc2)C(=O)N[C@H](C(=O)N[C@H](CCCCNC(=O)CN2CCN(CC(=O)O)CCN(CC(=O)O)CCN(CC(=O)O)CC2)C(N)=O)[C@@H](C)O)NC(=O)[C@H](Cc2ccc(O)cc2)NC(=O)[C@H](C(C)C)NC(=O)[C@H](CC(=O)O)NC(=O)[C@H](Cc2ccc(O)cc2)NC(=O)[C@H](CCCCN)NC(=O)CNC(=O)[C@H](C(C)C)NC1=O` [compound 156, Ac-hLeu-Y-C-V-G-K-Y-D-V-Y-C-7NW-F-Thr-dLys(DOTA)-CONH2] (Ac-[hLeu]YCVGKYDVYC[Trp(7-aza)]FT[dK](DOTA)-NH2; disulfide 3-11), the equilibrium dissociation constant (Kd) under setting [1] is 0.01 to 0.1 µM.
In turn, `CC(=O)N[C@@H](CCC(C)C)C(=O)N[C@@H](Cc1ccc(O)cc1)C(=O)N[C@H]1CSSC[C@@H](C(=O)N[C@@H](Cc2c[nH]c3ccc(F)cc23)C(=O)N[C@H](C(=O)N[C@H](C(=O)N[C@H](CCCCNC(=O)CN2CCN(CC(=O)O)CCN(CC(=O)O)CCN(CC(=O)O)CC2)C(=O)O)C(C)(C)O)[C@@H](C)c2ccccc2)NC(=O)[C@H](Cc2ccc(O)cc2)NC(=O)[C@H](C(C)C)NC(=O)[C@H](CS(=O)(=O)O)NC(=O)[C@H](CC2CCOCC2)NC(=O)[C@H](CC2CCNCC2)NC(=O)CNC(=O)[C@H](C(C)(C)C)NC1=O` [compound 524, Ac-hLeu-Y-C-Tbg-G-PipAla-ThpA-CysAcid-V-Y-C-5FW-[(2S, 3S)beta-Me-Phe]-hydroxyVal-dLys(DOTA)-COOH] (Ac-[hLeu]YC[Tle]G[Ala(piperidin-4-yl)][Ala(4-THP)][Cya]VYC[Trp(5-F)][X1][Val(3-OH)][dK](DOTA)-OH; disulfide 3-11) returned a Kd under setting [2] of under 0.001 µM.
With `CC(=O)N[C@@H](CCC(C)C)C(=O)N[C@@H](Cc1ccc(O)cc1)C(=O)N[C@H]1CSSC[C@@H](C(=O)N[C@@H](Cc2c[nH]c3ccc(F)cc23)C(=O)N[C@@H](Cc2ccccc2)C(=O)N[C@H](C(=O)O)C(C)(C)O)NC(=O)[C@H](Cc2ccc(O)cc2)NC(=O)[C@H](C(C)C)NC(=O)[C@H](CC(=O)O)NC(=O)[C@H](Cc2ccc(C(=O)O)cc2)NC(=O)[C@H](CCCCNC(=O)CN2CCN(CC(=O)O)CCN(CC(=O)O)CCN(CC(=O)O)CC2)NC(=O)CNC(=O)[C@H](C(C)C)NC1=O` [compound 325, Ac-hLeu-Y-C-V-G-Lys(DOTA)-4COOHPhe-D-V-Y-C-5FW-F-hydroxyVal-COOH] (Ac-[hLeu]YCVGK(DOTA)[Phe(4-COOH)]DVYC[Trp(5-F)]F[Val(3-OH)]-OH; disulfide 3-11), the Kd under setting [2] lay within 0.01 to 0.1 µM.
For the molecule `CC(=O)N[C@@H](CCC(C)C)C(=O)N[C@@H](Cc1ccc(O)cc1)C(=O)N[C@H]1CSSC[C@@H](C(=O)N[C@@H](Cc2cccc3ccccc23)C(=O)N[C@@H](Cc2ccccc2)C(=O)N2CCC[C@H]2C(N)=O)NC(=O)[C@H](Cc2ccc(O)cc2)NC(=O)[C@H](C(C)C)NC(=O)[C@H](CC(=O)O)NC(=O)[C@H](Cc2cccc(CNC(=O)COCCOCCOCCOCCOCCOCCOCCOCCNC(=O)CN3CCN(CC(=O)O)CCN(CC(=O)O)CCN(CC(=O)O)CC3)c2)NC(=O)[C@H](CCCCN)NC(=O)CNC(=O)[C@H](C(C)(C)C)NC1=O` [compound 279, Ac-hLeu-Y-C-Tbg-G-K-MAF(PEG8-DOTA)-D-V-Y-C-1Nal-F-Pro-CONH2] (Ac-[hLeu]YC[Tle]GK[Phe(3-CH2NH2)](X7)DVYC[1Nal]FP-NH2; disulfide 3-11), under setting [1], the Kd was 0.001 to 0.01 µM.
The molecule `CC(=O)N[C@@H](CCC(C)C)C(=O)N[C@@H](Cc1ccc(O)cc1)C(=O)N[C@H]1CSSC[C@@H](C(=O)N[C@@H](Cc2c[nH]c3ccc(F)cc23)C(=O)N[C@@H](Cc2ccccc2)C(=O)N[C@H](C(=O)N[C@H](CCCCNC(=O)CN2CCN(CC(=O)O)CCN(CC(=O)O)CCN(CC(=O)O)CC2)C(=O)O)[C@@H](C)O)NC(=O)[C@H](Cc2ccc(O)cc2)NC(=O)[C@H](C(C)C)NC(=O)[C@H](CC(=O)O)NC(=O)[C@H](CC2CCOCC2)NC(=O)[C@](C)(CCCCN)NC(=O)CNC(=O)[C@H](C(C)(C)C)NC1=O` [compound 353, Ac-hLeu-Y-C-Tbg-G-aMeLys-ThpA-D-V-Y-C-5FW-F-Thr-dLys(DOTA)-COOH] (Ac-[hLeu]YC[Tle]G[αMeK][Ala(4-THP)]DVYC[Trp(5-F)]FT[dK](DOTA)-OH; disulfide 3-11) had a Kd under setting [1] of 0.1 to 0.3 µM.
Still for that read-out and setting: the figure for `CC(=O)N[C@@H](CCC(C)C)C(=O)N[C@@H](Cc1ccc(O)cc1)C(=O)N[C@H]1CSSC[C@@H](C(=O)N[C@@H](Cc2c[nH]c3ccc(F)cc23)C(=O)N[C@@H](Cc2ccccc2)C(=O)N2C[C@H](O)C[C@H]2C(=O)N[C@H](CCCCNC(=O)CN2CCN(CC(=O)O)CCN(CC(=O)O)CCN(CC(=O)O)CC2)C(N)=O)NC(=O)[C@H](Cc2ccc(O)cc2)NC(=O)[C@H](C(C)C)NC(=O)[C@H](CC(=O)O)NC(=O)[C@H](Cc2ccc(O)cc2)NC(=O)[C@H](CCCCN)NC(=O)CNC(=O)[C@H](C(C)C)NC1=O` [compound 161, Ac-hLeu-Y-C-V-G-K-Y-D-V-Y-C-5FW-F-4OHPro-dLys(DOTA)-CONH2] (Ac-[hLeu]YCVGKYDVYC[Trp(5-F)]F[Hyp][dK](DOTA)-NH2; disulfide 3-11) is 0.001 to 0.01 µM.
